In ChEMBL document CHEMBL2073960, “Cytotoxic and multidrug resistance reversal activity of a vegetable, 'Anastasia Red', a variety of sweet pepper” (Phytother Res, 2003):

Target: ATP-dependent translocase ABCB1 (Homo sapiens, UniProt P08183)
Test: TP_TRANSPORTER: increase in Rhodamine 123 intracellular accumulation in MDR1 transfected L-5178 mouse T-cell lymphoma cells
Format: functional, cell-based

Chain of ATP-dependent translocase ABCB1 (P08183 whole entry): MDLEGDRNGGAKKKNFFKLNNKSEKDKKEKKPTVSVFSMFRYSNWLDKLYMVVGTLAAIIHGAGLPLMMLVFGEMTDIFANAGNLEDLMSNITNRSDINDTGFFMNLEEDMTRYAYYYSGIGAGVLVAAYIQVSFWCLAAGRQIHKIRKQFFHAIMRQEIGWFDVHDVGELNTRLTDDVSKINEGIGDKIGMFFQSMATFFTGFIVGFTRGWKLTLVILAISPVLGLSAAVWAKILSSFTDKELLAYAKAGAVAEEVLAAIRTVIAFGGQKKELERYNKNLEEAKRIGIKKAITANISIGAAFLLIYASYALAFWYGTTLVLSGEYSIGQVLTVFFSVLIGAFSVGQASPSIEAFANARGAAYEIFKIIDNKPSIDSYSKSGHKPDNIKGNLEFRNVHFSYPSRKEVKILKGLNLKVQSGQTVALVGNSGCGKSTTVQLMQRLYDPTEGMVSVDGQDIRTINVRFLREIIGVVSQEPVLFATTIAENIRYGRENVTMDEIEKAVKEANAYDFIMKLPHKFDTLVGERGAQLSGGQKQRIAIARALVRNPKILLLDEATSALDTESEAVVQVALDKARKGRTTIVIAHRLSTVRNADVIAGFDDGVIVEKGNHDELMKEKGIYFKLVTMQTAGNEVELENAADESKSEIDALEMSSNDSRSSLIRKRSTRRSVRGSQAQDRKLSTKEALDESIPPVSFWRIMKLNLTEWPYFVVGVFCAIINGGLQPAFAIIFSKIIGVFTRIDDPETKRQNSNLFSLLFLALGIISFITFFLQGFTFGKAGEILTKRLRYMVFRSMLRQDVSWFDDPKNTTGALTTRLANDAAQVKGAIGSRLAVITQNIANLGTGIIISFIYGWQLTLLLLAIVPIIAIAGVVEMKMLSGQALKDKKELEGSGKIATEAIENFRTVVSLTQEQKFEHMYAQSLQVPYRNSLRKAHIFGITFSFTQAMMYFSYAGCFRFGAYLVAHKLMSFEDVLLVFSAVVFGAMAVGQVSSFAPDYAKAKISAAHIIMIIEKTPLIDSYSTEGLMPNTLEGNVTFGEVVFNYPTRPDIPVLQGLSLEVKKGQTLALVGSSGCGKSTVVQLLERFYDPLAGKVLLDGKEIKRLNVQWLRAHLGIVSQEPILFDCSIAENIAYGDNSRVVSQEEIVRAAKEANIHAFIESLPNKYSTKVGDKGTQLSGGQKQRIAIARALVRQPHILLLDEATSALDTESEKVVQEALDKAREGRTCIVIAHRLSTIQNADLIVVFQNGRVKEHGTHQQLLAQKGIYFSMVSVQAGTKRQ

Activity: inhibitor [+]
Sequence: ANASTASIA RED EXTRACTS
